Results on one molecule are retold here after patent US20260224733A1, “NANOPARTICLES DIRECTED TO CXCR4 AND USE THEREOF” (TECHNION RESEARCH & DEVELOPMENT FOUNDATION LIMITED, priority 2023, published 2026).

Holding throughout (format): cell-based, human
Assay [1] has as its system RPMI8226 cells. Put plainly: IC50 of bortezomib and ATBL in RPMI8226 cells. Particulars: for IC50: read-out: half maximal inhibitory concentration (IC50). As for the experimental part:
CAG, U266 and RPMI8226 human MM cells; (American Type Culture Collection; ATCC); KMS-11 (originally from the Japanese Collection of Research Bioresource); human MM cells and MPC-11 murine myeloma cell line (kindly provided by Professor Ralph Sanderson, University of Alabama, USA) and HL60 human acute myeloid leukemia (ATCC) were used. Cells were cultured in RPMI-1640 medium supplemented with 10% fetal bovine serum (FBS), supplemented with 1% L-glutamine, 1% sodium pyruvate and 1% pen-strep-neomycin. All cells were cultured at 37° C. in 5% CO2 for no more than 6 months after being thawed from the authentic stocks.
The half maximal inhibitory concentration (IC50) of bortezomib and ATBL was evaluated in RPMI8226 cells.

For another assay, the system named is CAG cells. Put plainly: Apoptosis assay (7AAD and Annexin V, flow cytometry). Conditions: 48 h; compared to other treatments tested. As for the experimental part: (§1) In another experiment cells were incubated with 10% plasma obtained from vehicle-treated mice, bortezomib-treated mice (at the 24 h time-point) or ATBL-treated mice at 24, 72 and 168 h time-point post administration. Then cell viability and apoptosis status; healthy, early apoptosis, late apoptosis and dead, were determent using 7AAD and Annexin V staining and were used in accordance with the manufacturer's instruction. At least 50,000 events were acquired using a LSRFortessa flow cytometer (BD) and analyzed with FlowJo 10.
(§2) To determine the therapeutic effect of ATBL compared to free bortezomib, a cell viability and apoptosis assay was used. To this end, CAG and RPMI8226 cells were treated with ATBL, bortezomib in naked liposomes, free bortezomib, AMD on empty liposomes, free AMD, empty naked liposomes and vehicle. […] However, the inventors hypothesized that in an in vivo model, ATBL will have better therapeutic efficacy due to its targeting properties.
In general terms: In flow cytometry, cells or beads pass a laser one at a time.

Assay [2] concerns RPMI8226 cells. The assay is described as above. Particulars: 48 h; compared to other treatments tested. As for the experimental part: as §1, §2

Where two headings read alike, the source gives them in different places.

`CC(C)C[C@H](NC(=O)[C@H](Cc1ccccc1)NC(=O)c1cnccn1)B(O)O` [bortezomib, [(1R)-3-methyl-1-[[(2S)-3-phenyl-2-(pyrazine-2-carbonylamino)propanoyl]amino]butyl]boronic acid]: the IC50 in the assay with RPMI8226 cells [1] (Homo sapiens, RPMI-8226, RPMI8226 cells) was 11 nM; in the assay on RPMI8226 cells [1] (RPMI8226 cells) it was 9.13 nM. The “IC50 of bortezomib relative to ATBL” value with RPMI8226 cells [1] (RPMI8226 cells) was roughly 2 fold. Besides, the late apoptosis entry in the assay with CAG cells and with RPMI8226 cells [2] was “significant higher late apoptosis” in each case.
